Reference: ChEMBL document CHEMBL6096636 (Bioorg Med Chem, 2024)

Experiments:
[1] = Selectivity index, ratio of IC50 for HEK293T cells to IC50 for erythrocytic stage of Plasmodium falciparum 3D7; format: toxicity, cell-based; conditions: human, read-out: Ratio IC50
Plasmodium falciparum [2] = experiment: microbe, parasite or virus in culture; conditions: Dd2, 72 h
Description: Antimalarial activity against erythrocytic stage of chloroquine-resistant Plasmodium falciparum Dd2 assessed as inhibition of growth incubated for 72 hrs by SYBR green I based assay

[3] = Cytotoxicity against HEK293T cells assessed as inhibition of cell growth incubated for 72 hrs by CCK8 assay; format: toxicity, cell-based, HEK-293T; conditions: human
[4] = Cytotoxicity against human HepG2 cells assessed as inhibition of cell growth incubated for 72 hrs by CCK8 assay; format: toxicity, cell-based
[5] = Selectivity index, ratio of IC50 for human HepG2 cells to IC50 for erythrocytic stage of Plasmodium falciparum 3D7; format: toxicity, cell-based; conditions: read-out: Ratio IC50
Plasmodium falciparum [6] = experiment: microbe, parasite or virus in culture; conditions: 3D7, 72 h
Description: Antimalarial activity against erythrocytic stage of Plasmodium falciparum 3D7 assessed as inhibition of growth incubated for 72 hrs by SYBR green I based assay

Structure (SMILES) | selectivity ratio [1] | IC50 (Plasmodium falciparum [2]) | IC50 at 72 h [3] | IC50 at 72 h [4] | selectivity ratio [5] | IC50 (Plasmodium falciparum [6])
O=C(NO)c1cnc(N[C@H]2CC[C@@H](NCc3ccccc3)CC2)nc1 | 44 | 54.6 nM | 4620 nM |  |  | 
Cn1cc(CN[C@H]2CC[C@@H](Nc3ncc(C(=O)NO)cn3)CC2)c2ccc(Cl)cc21 | 213 | 18 nM | 3650 nM | 2500 nM | 146 | 17.1 nM
O=C(NO)c1cnc(N[C@H]2CC[C@@H](NCC3CCCC3)CC2)nc1 | 59 | 70.1 nM | 5880 nM | 5490 nM | 55 | 100 nM
O=C(NO)c1cnc(N[C@H]2CC[C@@H](NCc3cc4ccccc4c4ccccc34)CC2)nc1 | 187 | 12.3 nM | 2010 nM | 1290 nM | 120 | 10.7 nM
O=C(NO)c1cnc(N[C@H]2CC[C@@H](NCc3ccc4ccccc4c3)CC2)nc1 | 116 | 15.4 nM | 1790 nM | 1130 nM | 73 | 15.4 nM
Cn1cc(CN[C@H]2CC[C@@H](Nc3ncc(C(=O)NO)cn3)CC2)c2cccnc21 | > 209 | 53.9 nM | > 10000 nM | > 10000 nM | > 209 | 47.9 nM
O=C(NO)c1cnc(N[C@H]2CC[C@@H](NCc3cnc4ccccc4c3)CC2)nc1 | 161 | 37.6 nM | 4360 nM | 3340 nM | 123 | 27.1 nM
O=C(NO)c1cnc(N[C@H]2CC[C@@H](NCc3csc4ccccc34)CC2)nc1 | 77 | 34.8 nM | 1940 nM | 1360 nM | 54 | 25.3 nM
Cn1cc(CN[C@H]2CC[C@@H](Nc3ncc(C(=O)NO)cn3)CC2)c2ccc(Br)cc21 | 217 | 19 nM | 4830 nM | 2220 nM | 100 | 22.2 nM
O=C(NO)c1cnc(N[C@H]2CC[C@@H](NCc3cccc4ccncc34)CC2)nc1 | 163 | 62.1 nM | 7080 nM | 7080 nM | 163 | 43.4 nM
O=C(NO)c1cnc(N[C@H]2CC[C@@H](NCc3cccc4ccccc34)CC2)nc1 | 47 | 39.5 nM | 1530 nM | 642 nM | 19 | 34.3 nM
O=C(NO)c1cnc(N[C@H]2CC[C@@H](NCc3ccncc3)CC2)nc1 | > 64 | 186 nM | > 10000 nM | > 10000 nM | > 64 | 156 nM
O=C(NO)c1cnc(N[C@H]2CC[C@@H](NCc3cccnc3)CC2)nc1 | 37 | 56.5 nM | 4240 nM | 4580 nM | 40 | 114 nM
O=C(NO)c1cnc(N[C@H]2CC[C@@H](NCc3cccc4cccnc34)CC2)nc1 | > 152 | 53.6 nM | > 10000 nM | > 10000 nM | > 152 | 65.6 nM
Cn1cc(CN[C@H]2CC[C@@H](Nc3ncc(C(=O)NO)cn3)CC2)c2ccc(F)cc21 | 501 | 14.5 nM | 6000 nM | 3190 nM | 267 | 12 nM
O=C(NO)c1cnc(N[C@H]2CC[C@@H](NCc3ccnc4ccccc34)CC2)nc1 | > 176 | 54 nM | > 10000 nM | 7120 nM | 125 | 57 nM
Cn1nc(CN[C@H]2CC[C@@H](Nc3ncc(C(=O)NO)cn3)CC2)c2ccccc21 | 210 | 31.2 nM | 5740 nM | 5790 nM | 212 | 27.3 nM
O=C(NO)c1cnc(N[C@H]2CC[C@@H](NCc3ccsc3)CC2)nc1 | > 76 | 71.2 nM | > 10000 nM | > 10000 nM | > 76 | 132 nM
O=C(NO)c1cnc(N[C@H]2CC[C@@H](NCc3ccccn3)CC2)nc1 | > 72 | 210 nM | > 10000 nM | > 10000 nM | > 72 | 138 nM
Cn1cc(CN[C@H]2CC[C@@H](Nc3ncc(C(=O)NO)cn3)CC2)c2ccccc21 | 399 | 11.9 nM | 4310 nM | 1770 nM | 163 | 10.8 nM
Cn1cc(CN[C@H]2CC[C@@H](Nc3ncc(C(=O)NO)cn3)CC2)c2ccncc21 | > 192 | 49.4 nM | > 10000 nM | > 10000 nM | > 192 | 52.1 nM
O=C(NO)c1cnc(N[C@H]2CC[C@@H](NCc3ccc4cc(F)ccc4n3)CC2)nc1 | 213 | 15.8 nM | 2380 nM | 3620 nM | 324 | 11.2 nM
O=C(NO)c1cnc(N[C@H]2CC[C@@H](NCc3ccc4ccc5cccc6ccc3c4c56)CC2)nc1 | 87 | 28.8 nM | 2640 nM | 2130 nM | 70 | 30.3 nM
O=C(NO)c1cnc(N[C@H]2CC[C@@H](NCc3ccc4ccccc4n3)CC2)nc1 | 278 | 14.3 nM | 2890 nM | 2430 nM | 233 | 10.4 nM
O=C(NO)c1cnc(N[C@H]2CC[C@@H](NCC3CCCCC3)CC2)nc1 | 41 | 53.4 nM | 3630 nM | 5840 nM | 67 | 87.6 nM
Cn1cc(CN[C@H]2CC[C@@H](Nc3ncc(C(=O)NO)cn3)CC2)c2cnccc21 | > 157 | 51.3 nM | > 10000 nM | > 10000 nM | > 157 | 63.8 nM
O=C(NO)c1cnc(N[C@H]2CC[C@@H](NCc3coc4ccccc34)CC2)nc1 | 61 | 35.5 nM | 3110 nM | 2580 nM | 51 | 50.8 nM
Cn1cc(CN[C@H]2CC[C@@H](Nc3ncc(C(=O)NO)cn3)CC2)c2ncccc21 | 27 | 38.3 nM | 1250 nM | > 10000 nM | > 214 | 46.7 nM
Cn1c(CN[C@H]2CC[C@@H](Nc3ncc(C(=O)NO)cn3)CC2)nc2ccccc21 | > 510 | 26.4 nM | > 10000 nM | > 10000 nM | > 510 | 19.6 nM
O=C(NO)c1cnc(N[C@H]2CC[C@@H](NCc3ccoc3)CC2)nc1 | > 91 | 106 nM | > 10000 nM | > 10000 nM | > 91 | 109 nM
